US7271264B2, “Pentacyclic oxepines and derivatives thereof, compositions and methods” (Eli Lilly and Company, priority 2002, dated 2007)
Where a name gives a salt, the structure may show the parent alone.

Assays:
[1] = biological target: T1, ERAlpha receptor (PanVera) (Homo sapiens, UniProt P03372); experiment: Competition binding assay, 3H-Estradiol, ERAlpha receptor; details: 3H-Estradiol competition; IC50 converted to Ki using Cheng-Prusoff equation; read-out: ER binding Ki (ERα)
T1 construct: purchased PanVera
T1 sequence (P03372 1-595): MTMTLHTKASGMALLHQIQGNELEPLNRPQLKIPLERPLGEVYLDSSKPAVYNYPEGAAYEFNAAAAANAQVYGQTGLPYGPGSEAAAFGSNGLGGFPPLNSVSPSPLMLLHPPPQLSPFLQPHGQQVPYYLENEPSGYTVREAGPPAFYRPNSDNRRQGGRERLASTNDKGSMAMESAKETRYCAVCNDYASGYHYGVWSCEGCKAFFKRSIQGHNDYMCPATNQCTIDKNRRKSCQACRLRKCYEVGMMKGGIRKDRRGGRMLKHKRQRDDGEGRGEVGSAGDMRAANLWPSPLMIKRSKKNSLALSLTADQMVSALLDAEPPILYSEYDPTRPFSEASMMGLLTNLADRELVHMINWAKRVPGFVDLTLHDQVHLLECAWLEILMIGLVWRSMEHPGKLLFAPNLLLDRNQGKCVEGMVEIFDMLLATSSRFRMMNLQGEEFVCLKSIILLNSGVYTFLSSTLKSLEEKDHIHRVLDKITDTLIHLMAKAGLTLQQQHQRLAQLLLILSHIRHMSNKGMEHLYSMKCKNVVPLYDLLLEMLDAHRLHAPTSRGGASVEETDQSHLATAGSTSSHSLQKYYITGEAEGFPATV
Description: (§1) Competition binding assay is run in a buffer containing 50 mM Hepes, pH 7.5, 1.5 mM EDTA, 150 mM NaCl, 10% glycerol, 1 mg/ml ovalbumin and 5 mM DTT, using 0.025 μCi per well ^3H-Estradiol(NEN #NET517 at 118 Ci/mmol, 1 mCi/ml), 10 ng/well ERAlpha or ERbeta receptor (PanVera). Competing compounds are added at 10 different concentrations. Non-specific binding is determined in the presence of 1 μM of 17-B Estradiol. The binding reaction (140 μl) is incubated for 4 hours at room temperature, then 70 μl of cold DCC buffer is added to each reaction (DCC buffer contains per 50 ml of assay buffer, 0.75 g of charcoal (Sigma) and 0.25 g of dextran (Pharmacia)). Plates are mixed 8 minutes on an orbital shaker at 4° C. Plates are then centrifuged at 3,000 rpm at 4° C. for 10 minutes. An aliquot of 120 μl of the mix is transferred to another 96-well, white flat bottom plate (Costar) and 175 μl of Wallac Optiphase “Hisafe 3” scintillation fluid is added to each well. Plates are sealed and shaken vigorously on an orbital shaker. After an incubation of 2.5 hrs, read plates in a Wallac Microbeta counter. The data is used to calculate an IC50 and % Inhibition at 10 μM. The Kd for ^3H-Estradiol is determined by saturation binding to ER alpha and ER beta receptors. The IC50 values for compounds are converted to Ki using Cheng-Prusoff equation and the Kd determined by saturation binding assay.

[2] = biological target: T2, ERbeta receptor (PanVera) (Homo sapiens, UniProt Q92731); experiment: Competition binding assay, 3H-Estradiol, ERbeta receptor; details: 3H-Estradiol competition; IC50 converted to Ki using Cheng-Prusoff equation; read-out: ER binding Ki (ERβ)
T2 construct: purchased PanVera
T2 sequence (Q92731 whole entry): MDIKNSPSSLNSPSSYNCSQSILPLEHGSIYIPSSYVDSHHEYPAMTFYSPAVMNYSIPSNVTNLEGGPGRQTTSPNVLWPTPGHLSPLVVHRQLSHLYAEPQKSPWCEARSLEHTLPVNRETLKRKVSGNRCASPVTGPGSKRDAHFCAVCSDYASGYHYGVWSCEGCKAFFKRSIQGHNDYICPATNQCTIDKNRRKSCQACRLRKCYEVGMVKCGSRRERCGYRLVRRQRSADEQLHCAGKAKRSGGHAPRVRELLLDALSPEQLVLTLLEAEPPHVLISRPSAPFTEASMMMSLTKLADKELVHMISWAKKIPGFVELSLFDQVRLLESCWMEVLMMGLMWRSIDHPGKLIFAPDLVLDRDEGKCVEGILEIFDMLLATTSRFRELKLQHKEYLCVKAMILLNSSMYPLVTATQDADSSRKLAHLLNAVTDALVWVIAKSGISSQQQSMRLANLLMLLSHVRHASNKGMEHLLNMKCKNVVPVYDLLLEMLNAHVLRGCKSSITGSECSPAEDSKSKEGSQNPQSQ
Description: as §1

[3] = system: MCF-7 breast adenocarcinoma cells; experiment: MCF-7 proliferation assay (14C-thymidine), antagonist mode; format: cell-based; details: E2 10 pM
Description: MCF-7 breast adenocarcinoma cells (ATCC HTB 22) are maintained in MEM (minimal essential medium, phenol red-free, Gibco BRL) supplemented with 10% fetal bovine serum (FBS) (VV), L-glutamine (2 mM), sodium pyruvate (1 mM), HEPES ((N-[2-hydroxyethyl]piperazine-N′-[2-ethanesulfonic acid]10 mM}, non-essential amino acids (0.1 mM) and Penicillin Streptomycin (1×). Seven days prior to assay, MCF-7 cells are switched to assay media which is the same as maintenance medium except supplemented with 10% dextran-coated charcoal-stripped fetal bovine serum (DCC-FBS) assay medium in place of 10% FBS. MCF-7 cells are removed from flasks using 10× Trypsin EDTA (phenol red free, Gibco BRL) and diluted to IX in (Ca++/Mg++ free HBSS (phenol red-free). Cells are adjusted to 80,000 cells/ml in assay medium. Approximately 8,000 cells (100 μl) are added to each well in 96 well Cytostar T scintillation plates (Amersham) and incubated at 37° C. in a 5% CO2 humidified incubator for 24 hours to allow cell adherence and equilibration after transfer. Serial dilutions of drugs are prepared in assay medium at 4× the final desired concentration). A 50 μl aliquot of drug dilutions (at 4× the final assay concentration) is transferred to duplicate wells followed by 50 μl assay medium for the agonist mode or 50 μl of 40 pM of E2 for the antagonist mode to a final volume of 200 μl. For each of the agonist plates, a basal level (media) and a maximum stimulated level (with 1 μM E2) is determined. For each of the antagonist plates, a basal level (media) and a E2 (10 pM) alone control is determined. After an additional 48 hours at 37° C. in a 5% CO2 humidified incubator, 20 μl of assay medium containing 0.01 μCi of ^14C-thymidine (52 mCi/mmol, 50 μCi/ul, Amersham) is added to each well. The plates are incubated overnight in the same incubator and then counted on the Wallac Microbeta counter. The data is averaged to calculate an IC50 and % inhibition @ 1 μM for the antagonist mode. For the agonist mode, an EC50 and percent of maximum E2 stimulation and concentration of maximum stimulation is calculated.

[4] = system: Ishikawa human endometrial tumor cells; experiment: Ishikawa alkaline phosphatase (PNPP) assay, agonist mode; format: cell-based; details: for Ishikawa Agonist % Eff: % efficacy versus the response to tamoxifen; for EC50: Homo sapiens, Ishikawa
Text: (§2) Ishikawa human endometrial tumor cells are maintained in MEM (minimum essential medium, with Earle's salts and L-Glutamine, Gibco BRL, Gaithersburg, Md.), supplemented with 10% fetal bovine serum (FBS) (V/V), (Gibco BRL). One day prior to assay, growth media is changed to assay medium, DMEM/F-12 (3:1) (Dulbecco's Modified Eagle Medium: Nutrient Mixture F-12,3:1 Mixture, phenol red-free, Gibco BRL) supplemented with 5% dextran coated charcoal stripped fetal bovine serum (DCC-FBS) (Hyclone, Logen, Utah), L-Glutamine (2 mM), MEM sodium pyruvate (1 mM), HEPES (N-[2-hydroxyethyl]piperazine-N′-[2-ethanesulfonic acid] 2 mM) all from Gibco BRL). After an overnight incubation, ishikawa cells are rinsed with Dulbecco's Phosphate Buffered Saline (1×) (D-PBS) without Ca^+2 and Mg^+2 (Gibco BRL), and trypsinized by a 3 minute incubation with 0.25% Trypsin/EDTA, phenol red-free (Gibco BRL). Cells are resuspended in assay medium and adjusted to 250,000 cells/ml. Approximately 25,000 cells in a 100 ul media are added to flat-bottom 96 wells microculture plates (Costar 3596) and incubated at 37° C. in a 5% CO2 humidified incubator for 24 hours. The next day, serial dilutions of compounds are prepared in assay medium (at 6 times the final concentration in the assay). The assay is run in dual mode, agonist and antagonist modes. For the agonist mode, plates receive 25 μl/well of assay medium followed by 25 μl/well of diluted compounds (at 6× the final concentrations). For the antagonist mode, plates receive 25 μl/well of 6 nM E2 (β-Estradiol, Sigma, St. Louis, Mo.) followed by 25 μl/well of diluted compounds (at 6× the final concentrations). After an additional 48-hour incubation at 37° C. in a 5% CO2 humidified incubator, media is aspirated from wells and 100 μl fresh assay medium is added to each microculture. Serial dilutions of compounds are prepared and added to the cells as described above. After an additional 72 hour incubation at 37° C. in a 5% CO2 humidified incubator, the assay is quenched by removing media and rinsing plates twice in Dulbecco's Phosphate Buffered Saline (1×) (D-PBS) (Gibco BRL). The plates are dried for 5 min and frozen at −70° C. for at least 1 hour. The plates are then removed from the freezer and allowed to thaw at room temperature. To each well, 100 μl of 1-Step™ PNPP (Pierce Chemical Company, Rockford, Ill.) is added. After a 20-minute incubation, plates are read on a spectophotometer at 405 nm. The data is fitted to a linear interpolation to derive EC50 (for agonist mode) or IC50 (for antagonist mode) values. For the agonist mode, a % efficacy for each compound is calculated versus the response to tamoxifen. For the antagonist mode, a % efficacy for each compound is calculated versus E2 (1 nM) alone.

[5] = system: Ishikawa human endometrial tumor cells; experiment: Ishikawa alkaline phosphatase (PNPP) assay, antagonist mode; format: cell-based; details: with E2 (1 nM)
Text: as §2

[6] = Homo sapiens, MCF7, antagonist mode
[7] = antagonist mode, hydrochloride salt

Structure (SMILES) | Ki [1] | Ki [2] | IC50 ([3]; antagonist mode) | IC50 [5] | IC50 [3, 6] | EC50 [4] | IC50 ([5]; Homo sapiens, Ishikawa) | IC50 [3, 7] | IC50 ([5]; hydrochloride salt) | Ishikawa Agonist % Eff [4] | Ishikawa Agonist % Eff ([4]; hydrochloride salt)
COc1ccc2c3c(ccc2c1)-c1ccccc1COC3c1ccc(OCCN2CCCCC2)cc1 (stereo not drawn) [Example 3, 1-{2-[4-(8-Methoxy-11,13-dihydro-12-oxa-benzo[3,4]cyclohepta[1,2-a]naphthalen-11-yl)-phenoxy]-ethyl}-piperidine] | 140 nM | 430 nM |  |  | 480 nM | 260 nM | 340 nM |  |  | 21% | 
COc1ccc2c3c(sc2c1)-c1ccccc1COC3c1ccc(OCCN2CCCCC2)cc1 (stereo not drawn) [Example 1, 1-{2-[4-(10-Methoxy-5H,7H-6-oxa-12-thia-dibenzo[a,e]azulen-7-yl)-phenoxy]-ethyl}-piperidine] | 240 nM |  |  |  |  | 300 nM |  |  |  | 31% | 
Cl.Oc1ccc2c3c(ccc2c1)-c1ccc(F)cc1COC3c1ccc(OCCN2CCCCC2)cc1 (single isomer, unassigned) [Example 9, 2-Fluoro-11-[4-(2-piperidin-1-yl-ethoxy)-phenyl]-11,13-dihydro-12-oxa-benzo[3,4]cyclohepta[1,2-a]naphthalen-8-ol hydrochloride salt] | 62 nM | 89 nM |  |  |  |  |  | 68 nM | 350 nM |  | 11%

Compounds with a lower Ki [1], results first:

Ki [1] | Ki [2] | IC50 ([3]; antagonist mode) | IC50 [5] | IC50 [3, 6] | EC50 [4] | IC50 ([5]; Homo sapiens, Ishikawa) | IC50 [3, 7] | IC50 ([5]; hydrochloride salt) | Structure (SMILES) | Ishikawa Agonist % Eff [4] | Ishikawa Agonist % Eff ([4]; hydrochloride salt)
0.7 nM | 1.7 nM | 0.4 nM | 2.2 nM |  |  |  |  |  | Cl.Oc1ccc2c(c1)COC(c1ccc(OCCN3CCCCC3)cc1)c1c-2ccc2cc(O)ccc12 (single isomer, unassigned) [Example 7, 11-[4-(2-Piperidin-1-yl-ethoxy)-phenyl]-11,13-dihydro-12-oxa-benzo[3,4]cyclohepta[1,2-a]naphthalene-2,8-diolhydrochloride salt] | 2.6% | 
2.9 nM | 19 nM |  |  | 36 nM | 2.8 nM | 270 nM |  |  | Oc1ccc2c3c(sc2c1)-c1ccccc1COC3c1ccc(OCCN2CCCCC2)cc1 (stereo not drawn) [Example 2, 7-[4-(2-Piperidin-1-yl-ethoxy)-phenyl]-5H,7H-6-oxa-12-thia-dibenzo[a,e]azulen-10-ol] | 41% | 
58 nM | 120 nM | 160 nM | 740 nM |  | 54 nM |  |  |  | Cl.Oc1ccc2c(c1)COC(c1ccc(OCCN3CCCCC3)cc1)c1c-2ccc2cc(O)ccc12 (single isomer, unassigned) [Example 6, 11-[4-(2-Piperidin-1-yl-ethoxy)-phenyl]-11,13-dihydro-12-oxa-benzo[3,4]cyclohepta[1,2-a]naphthalene-2,8-diolhydrochloride salt] | 38% | 
2.6 nM | 4 nM |  |  | 2.4 nM | 1.4 nM | 36 nM |  |  | Oc1ccc2c3c(ccc2c1)-c1ccccc1COC3c1ccc(OCCN2CCCCC2)cc1 (stereo not drawn) [Example 4, 11-[4-(2-Piperidin-1-yl-ethoxy)-phenyl]-11,13-dihydro-12-oxa-benzo[3,4]cyclohepta[1,2-a]naphthalen-8-ol trifluoroacetate] | 17% | 
0.7 nM | 1.4 nM |  |  |  |  |  | 0.4 nM | 4.3 nM | Cl.Oc1ccc2c3c(ccc2c1)-c1ccc(F)cc1COC3c1ccc(OCCN2CCCCC2)cc1 (single isomer, unassigned) [Example 8, 2-Fluoro-11-[4-(2-piperidin-1-yl-ethoxy)-phenyl]-11,13-dihydro-12-oxa-benzo[3,4]cyclohepta[1,2-a]naphthalen-8-ol hydrochloride salt] |  | 8.8%
